Values of other authors as cited in patent publication US20240174947A1, “SURFACTANT COMPOSITIONS” (LANKEM LTD., priority 2021, published 2024).

system: reconstructed human epidermis (RhE); details: typical reference ET50 irritancy results for commonly used anionic and amphoteric surfactants

Molecule	ET50 [h]
CCCCCCCCCCCCOS(=O)(=O)[O-].[Na+] [Sodium lauryl sulfate]	9.37
Cocamidopropyl betaine	29.4
Sodium laureth sulfate	10.25

same assay, conditions: typical reference results for commonly used anionic and amphoteric surfactants; assigned from ET50

Molecule	Classification (expected in vivo irritancy)
CCCCCCCCCCCCOS(=O)(=O)[O-].[Na+] [Sodium lauryl sulfate]	Moderate to mild (4-12)
Cocamidopropyl betaine	Non-irritating (>24)
Sodium laureth sulfate	Moderate to mild (4-12)
